# From US5670619A, “Bradykinin-antagonists for the treatment of acute pancreatitis” (Hoechst Aktiengesellschaft, priority 1991, dated 1997)
# Key:
# Type in all cases: in vivo
# [1] = system: pancreatic enzymes in serum; experiment: Serum amylase and lipase activities in caerulein-induced pancreatitis in rats; conditions: rat, A s.c., no CRL i.v., n = 6
# Procedure: (§1) Method: Female Sprague-Dawley rats (260±30 g) were anaesthetized with pentobarbitone sodium (40 mg/kg, i.p.) and phenobarbitone sodium (160 mg/kg, i,p.). […] 10 min later, the animals were given a s.c. injection of a peptide of the formula I (100 nmol/kg) or of a corresponding volume (0.5 ml/kg) of a 154 mM sodium chloride solution. The systemic arterial blood pressure was monitored in a carotid artery using a Statham pressure transducer. A jugular vein was cannulated to allow the infusion of either caerulein (4 nmol/kg/h) or of physiological saline (0.034 ml/min). The infusion was started 30 min after the s.c. injection of a peptide of the formula I or saline, and lasted for 2 h. At the end of the experiment the animals were killed by decapitation; the blood was collected for the determination of serum amylase and lipase.
# Methods: Serum amylase was determined using a kinetic colour test with 2-chlor-4-nitrophenyl-D-maltoheptoside (Amylase test kit Roche, F.R.G.). Serum lipase was measured by the reduction of the turbidity due to cleavage of triolein to monoglyceride and oleic acid (Monotest Lipase, Boehringer Mannheim, F.R.G.). The detection limits for amylase and lipase were 11 U/I and 16 U/l, respectively. Control animals were treated with corresponding volumes of saline instead of a peptide of the formula I.
# [2] = system: bradykinin (injected, or split off from kininogen by kallikrein); experiment: Inhibition of the fall in blood pressure evoked by bradykinin and kallikrein in anaesthetized rabbits; conditions: anaesthetized rabbit, peptide 3 nmol/kg i.v.
# Procedure: Methods: Rabbits of either sex (3.5-5.0 kg) were anaesthetized with pentobarbitone sodium (35 mg/kg i.v.). Arterial blood pressure was monitored in a carotid artery using a Statham pressure transducer. I.v. injections of bradykinin (1 to 10 nmol/kg) or kallikrein (1 to 10 U/kg) were made into a jugular vein at intervals of 10 min. A peptide of the formula I (3 nmol/kg) was given i.v. and the injections of bradykinin or kallikrein were then repeated.
# [3] = system: caerulein-induced increase of water and Evans blue content in the pancreas; experiment: Comparison of peptide A with the Berg et al. antagonist, given after onset of caerulein infusion in rats; conditions: rat; given 10 minutes after the outset of the caerulein infusion; Berg antagonist in a dose 10 times higher than peptide A
# Procedure: Additionally D-Arg^0 -HYP^3 -Thi^5.8 D-Phe^7 -BK disclosed by Berg et al. (see page 1) has been tested in comparision with the peptide A. Both antagonists were given in two groups of rats under identical conditions 10 minutes after the outset of the infusion of caerulein.
# [4] = system: caerulein-induced pancreatic oedema; experiment: Pancreatic oedema (water and Evans blue content of pancreas) in caerulein-induced pancreatitis in rats; conditions: rat; for Pancreatic oedema: Evans blue / Pancreatic oedema: water: A s.c. 100 nmol/kg, mean ± SEM, n = 10
# Excerpt: General methods: To induce experimental pancreatitis in animals, a number of procedures have been used including ligation of the pancreatic duct, injection of bile salts into the pancreatic duct, infusion of oleic acid, or infusion of the amphibian cholecystokinin analogue, caerulein. The latter procedure produces a hyperstimulation of the exocrine function of the pancreas and leads to morphological changes that share many features also seen in human acute pancreatitis (Willemer S., Bialek R., Kohler H. Adler G.; "Caerulein-induced acute pancreatitis in rats: changes in glycoprotein-composition of subcellular membrane systems in acinar cells;" Histochemistry 1990; 95; 87-96). Caerulein-induced pancreatitis in rats was used for the following experiments.
# as §1
# Method: Quantification of the pancreatic oedema was achieved by measuring the dry weight of pancreas and the accumulation of plasma proteins in pancreas. At the end of the infusions (see blood pressure experiments), the blood was collected for measuring enzymes in serum. The pancreas was excised and weighed. After drying the tissue, the difference between wet and dry weight, in relation to dry weight, was used as a measure for the water content of the tissue. 5 mg/kg of Evans blue, which quantitatively binds to serum albumin (Rawson R. A.: "The binding of T-1824 and structurally related diazo dyes by plasma proteins", Amer. J. Physiol. 1943, 138, 708-717) was injected i.v. immediately before the start of the i.v. infusion of caerulein or physiological saline. Thereafter the pancreatic tissue was used to measure Evans blue concentration photometrically (Gamse R., Holzer P., Lembeck F.: "Decrease of substance P in primary afferent neurones and impairment of neurogenic plasma extravasation by capsaicin", Br. J. Pharmacol. 1980, 68, 207-213; Saria A., Lundberg J. M.: "Evans blue fluorescence: quantitative and morphological evaluation of vascular permeability in animal tissues", J. Neurosci. Meth. 1983, 8, 41-49). Control animals were treated with corresponding volumes of saline instead of a peptide of the formula I or caerulein. Plasma extravasation was quantified as content of water and Evans blue in the pancreas.
smiles,measurement,setting,value
"N=C(N)NCCC[C@@H](N)C(=O)N[C@@H](CCCNC(=N)N)C(=O)N1CCC[C@H]1C(=O)N1C[C@H](O)C[C@H]1C(=O)NCC(=O)N[C@@H](Cc1cccs1)C(=O)N[C@@H](CO)C(=O)N1Cc2ccccc2C[C@@H]1C(=O)N1[C@H](C(=O)N[C@@H](CCCNC(=N)N)C(=O)O)C[C@@H]2CCCC[C@@H]21 [peptide A, H-D-Arg-Arg-Pro-Hyp-Gly-Thi-Ser-D-Tic-Oic-Arg-OH]",Serum Amylase activity,[1]; mean ± SEM,3.19 ± 0.21 U/ml
same,Serum Lipase activity,[1]; nn = not detectable,nn
same,fall in blood pressure evoked by bradykinin,[2]; bradykinin 1 to 10 nmol/kg i.v.,completely blocked
same,fall in blood pressure evoked by kallikrein,[2]; kallikrein 1 to 10 U/kg i.v.,completely blocked
same,increase of Evans blue content in the pancreas,[3],completely inhibited
same,increase of water content in the pancreas,[3],completely inhibited
same,Pancreatic oedema: Evans blue,[4]; CRL i.v.,18.21 ± 4.24 μg/g dry wgt
same,Pancreatic oedema: water,[4]; CRL i.v.,3.11 ± 0.33 g/g dry wgt
same,Pancreatic oedema: Evans blue,[4]; no CRL i.v.,20.31 ± 5.80 μg/g dry wgt
same,Pancreatic oedema: water,[4]; no CRL i.v.,2.62 ± 0.23 g/g dry wgt
same,CRL induced pancreatic oedema,[4]; result in words,completely inhibited
